Measured values taken from ChEMBL document CHEMBL1240303, “Inhibiting transcription of chromosomal DNA with antigene peptide nucleic acids” (2005).
The source made the active and inactive calls. No cut-off for these calls is given here.

Experiments:
[1] = system: T47D; assay: Inhibition of human progesterone receptor B protein expression transfected in human T47D cells at 25 nM by Western blot; type: functional, cell-based
[2] = system: T47D; assay: Inhibition of human progesterone receptor A protein expression transfected in human T47D cells at 25 nM by Western blot; type: functional, cell-based
[3] = system: T47D; assay: Reduction in cell proliferation of human T47D cells expressing human progesterone receptor by FACS method; type: functional, cell-based
[4] = system: T47D; assay: Inhibition of human progesterone receptor B protein expression transfected in human T47D cells at 200 nM in presence of 10 nM of estradiol by Western blot; type: functional, cell-based
[5] = system: T47D; assay: Induction of morphology changes in human T47D cells expressing human progesterone receptor assessed as increase in cell height by confocal microscopy; type: functional, cell-based
[6] = system: T47D; assay: Inhibition of human progesterone receptor A protein expression transfected in human T47D cells at 200 nM in presence of 10 nM of estradiol by Western blot; type: functional, cell-based
[7] = system: T47D; assay: Inhibition of human progesterone receptor A protein expression transfected in human T47D cells at 200 nM by Western blot; type: functional
[8] = system: T47D; assay: Increase in Ezrin mRNA expression in human T47D cells expressing human progesterone receptor by RT-PCR relative to untreated control; type: functional
[9] = system: T47D; assay: Inhibition of human progesterone receptor B protein expression transfected in human T47D cells at 200 nM by Western blot; type: functional
[10] = system: T47D; assay: Inhibition of human progesterone receptor A gene expression transfected in human T47D cells at 200 nM by RT-PCR; type: functional, cell-based
[11] = system: T47D; assay: Inhibition of human progesterone receptor B gene expression transfected in human T47D cells at 200 nM by RT-PCR; type: functional, cell-based

SMILES | inhibition [1] | inhibition [2] | Activity [3] | inhibition [4] | Activity [5] | inhibition [6] | inhibition at 0.2 µM [7] [%] | fold change (FC) [8] | inhibition at 0.2 µM [9] [%] | inhibition [10] | inhibition [11]
Cc1cn([C@@H]2O[C@H](COP(=O)(O)O[C@H]3[C@@H](O)[C@H](n4cnc5c(=O)[nH]c(N)nc54)O[C@@H]3COP(=O)(O)O[C@H]3[C@@H](O)[C@H](n4ccc(=O)[nH]c4=O)O[C@@H]3COP(=O)(O)O[C@H]3[C@@H](O)[C@H](n4cnc5c(N)ncnc54)O[C@@H]3COP(=O)(O)O[C@H]3C[C@H](n4ccc(N)nc4=O)O[C@@H]3COP(=O)(O)O[C@H]3[C@@H](O)[C@H](n4ccc(=O)[nH]c4=O)O[C@@H]3COP(=O)(O)O[C@H]3C[C@H](n4cnc5c(=O)[nH]c(N)nc54)O[C@@H]3COP(=O)(O)O[C@H]3[C@@H](O)[C@H](N4CC=C(N)NC4=O)O[C@@H]3COP(=O)(O)O[C@H]3[C@@H](O)[C@H](n4ccc(=O)[nH]c4=O)O[C@@H]3COP(=O)(O)O[C@H]3[C@@H](O)[C@H](n4cnc5c(=O)[nH]c(N)nc54)O[C@@H]3COP(=O)(O)O[C@H]3[C@@H](O)[C@H](n4cnc5c(N)ncnc54)O[C@@H]3COP(=O)(O)O[C@H]3[C@@H](O)[C@H](n4ccc(N)nc4=O)O[C@@H]3COP(=O)(O)O[C@H]3[C@@H](O)[C@H](n4ccc(N)nc4=O)O[C@@H]3COP(=O)(O)O[C@H]3[C@@H](O)[C@H](n4ccc(=O)[nH]c4=O)O[C@@H]3COP(=O)(O)O[C@H]3C[C@H](n4cnc5c(=O)[nH]c(N)nc54)O[C@@H]3COP(=O)(O)O[C@H]3[C@@H](O)[C@H](n4cnc5c(N)ncnc54)O[C@@H]3COP(=O)(O)O[C@H]3[C@@H](O)[C@H](n4cnc5c(=O)[nH]c(N)nc54)O[C@@H]3COP(=O)(O)O[C@H]3[C@@H](O)[C@H](n4cnc5c(=O)[nH]c(N)nc54)O[C@@H]3COP(=O)(O)O[C@H]3[C@@H](O)[C@H](n4cnc5c(=O)[nH]c(N)nc54)O[C@@H]3COP(=O)(O)O[C@H]3[C@@H](O)[C@H](n4cnc5c(=O)[nH]c(N)nc54)O[C@@H]3CO)[C@@H](OP(=O)(O)OC[C@H]3O[C@@H](n4cc(C)c(=O)[nH]c4=O)C[C@@H]3O)[C@H]2O)c(=O)[nH]c1=O | Active | Active |  |  |  |  |  |  |  |  | 
Cc1cn(CC(=O)N(CCNC(=O)CN(CCNC(=O)CN(CCNCC(=O)N(CCNC(=O)CN(CCNC(=O)CN(CCNC(=O)CN(CCNC(=O)CN(CCNC(=O)CN(CCNC(=O)CN(CCNC(=O)CN(CCNC(=O)CN(CCNC(=O)CN(CCNC(=O)CN(CCNC(=O)CN(CCNC(=O)CNC(=O)[C@@H](N)CCCCN)C(=O)Cn2c(N)ccnc2=O)C(=O)Cn2cnc3c(N)ncnc32)C(=O)Cn2cc(C)c(=O)[nH]c2=O)C(=O)Cn2cnc3nc(N)[nH]c(=O)c32)C(=O)Cn2cnc3c(N)ncnc32)C(=O)Cn2c(N)ccnc2=O)C(=O)Cn2cnc3nc(N)[nH]c(=O)c32)C(=O)Cn2cnc3c(N)ncnc32)C(=O)Cn2c(N)ccnc2=O)C(=O)Cn2cc(C)c(=O)[nH]c2=O)C(=O)Cn2cnc3nc(N)[nH]c(=O)c32)C(=O)Cn2cnc3nc(N)[nH]c(=O)c32)C(=O)Cn2cnc3c(N)ncnc32)C(=O)Cn2c(N)ccnc2=O)CC(=O)NCCN(CC(=O)NCCN(CC(=O)NCCN(CC(=O)NCCN(CC(=O)N[C@@H](CCCCN)C(=O)O)C(=O)Cn2c(N)ccnc2=O)C(=O)Cn2c(N)ccnc2=O)C(=O)Cn2c(N)ccnc2=O)C(=O)Cn2c(N)ccnc2=O)c(=O)[nH]c1=O | Active | Active |  |  |  |  |  |  |  |  | 
Cc1cn(CC(=O)N(CCNC(=O)CNC(=O)[C@@H](N)CCCCN)CC(=O)NCCN(CC(=O)NCCN(CC(=O)NCCN(CC(=O)NCCN(CC(=O)NCCN(CC(=O)NCCN(CC(=O)NCCN(CC(=O)NCCN(CC(=O)NCCN(CC(=O)NCCN(CC(=O)NCCN(CC(=O)NCCN(CC(=O)NCCN(CC(=O)NCCN(CC(=O)NCCN(CC(=O)NCCN(CC(=O)NCCN(CC(=O)NCCN(CC(=O)N[C@@H](CCCCN)C(=O)O)C(=O)Cn2ccc(N)nc2=O)C(=O)Cn2cnc3c(=O)[nH]c(N)nc32)C(=O)Cn2cnc3c(=O)[nH]c(N)nc32)C(=O)Cn2cnc3c(N)ncnc32)C(=O)Cn2cnc3c(N)ncnc32)C(=O)Cn2cnc3c(=O)[nH]c(N)nc32)C(=O)Cn2cc(C)c(=O)[nH]c2=O)C(=O)Cn2ccc(N)nc2=O)C(=O)Cn2cnc3c(=O)[nH]c(N)nc32)C(=O)Cn2cnc3c(N)ncnc32)C(=O)Cn2cnc3c(=O)[nH]c(N)nc32)C(=O)Cn2cc(C)c(=O)[nH]c2=O)C(=O)Cn2ccc(N)nc2=O)C(=O)Cn2cnc3c(N)ncnc32)C(=O)Cn2cnc3c(=O)[nH]c(N)nc32)C(=O)Cn2cc(C)c(=O)[nH]c2=O)C(=O)Cn2cnc3c(N)ncnc32)C(=O)Cn2ccc(N)nc2=O)c(=O)[nH]c1=O |  |  | Active | Active | Active | Active | 75 | 6 | 75 | inactive | inactive
Cc1cn(CC(=O)N(CCNC(=O)CN(CCNC(=O)CN(CCNC(=O)CN(CCNC(=O)CN(CCNC(=O)CN(CCNC(=O)CNC(=O)[C@@H](N)CCCCN)C(=O)Cn2cc(C)c(=O)[nH]c2=O)C(=O)Cn2cnc3c(=O)[nH]c(N)nc32)C(=O)Cn2cnc3c(N)ncnc32)C(=O)Cn2cnc3c(=O)[nH]c(N)nc32)C(=O)Cn2ccc(N)nc2=O)CC(=O)NCCN(CC(=O)NCCN(CC(=O)NCCN(CC(=O)NCCN(CC(=O)NCCN(CC(=O)NCCN(CC(=O)NCCN(CC(=O)NCCN(CC(=O)NCCN(CC(=O)NCCN(CC(=O)NCCN(CC(=O)NCCN(CC(=O)NCCN(CC(=O)NC(CCCCN)C(=O)O)C(=O)Cn2cc(C)c(=O)[nH]c2=O)C(=O)Cn2cnc3c(=O)[nH]c(N)nc32)C(=O)Cn2cnc3c(=O)[nH]c(N)nc32)C(=O)Cn2cnc3c(=O)[nH]c(N)nc32)C(=O)Cn2cnc3c(N)ncnc32)C(=O)Cn2cnc3c(N)ncnc32)C(=O)Cn2cnc3c(N)ncnc32)C(=O)Cn2ccc(N)nc2=O)C(=O)Cn2cnc3c(=O)[nH]c(N)nc32)C(=O)Cn2cnc3c(=O)[nH]c(N)nc32)C(=O)Cn2cnc3c(N)ncnc32)C(=O)Cn2cnc3c(N)ncnc32)C(=O)Cn2cnc3c(=O)[nH]c(N)nc32)c(=O)[nH]c1=O (stereo not given in full) |  |  | Active | Active | Active | Active | 75 | 8 | 75 | inactive | inactive
Cc1cn(CC(=O)N(CCNC(=O)CN(CCNC(=O)CNC(=O)[C@H](N)CCCCN)C(=O)Cn2c(N)ccnc2=O)CC(=O)NCCN(CC(=O)NCCN(CC(=O)NCCN(CC(=O)NCCN(CC(=O)NCCN(CC(=O)NCCN(CC(=O)NCCN(CC(=O)NCCN(CC(=O)NCCN(CC(=O)NCCN(C(=O)CNCCN(CC(=O)NCCN(CC(=O)NCCN(CC(=O)NCCN(CC(=O)NCCN(CC(=O)NCCN(CC(=O)NCCN(CC(=O)N[C@@H](CCCCN)C(=O)O)C(=O)Cn2c(N)ccnc2=O)C(=O)Cn2cnc3nc(N)[nH]c(=O)c32)C(=O)Cn2c(N)ccnc2=O)C(=O)Cn2c(N)ccnc2=O)C(=O)Cn2cc(C)c(=O)[nH]c2=O)C(=O)Cn2c(N)ccnc2=O)C(=O)Cn2cnc3c(N)ncnc32)C(=O)Cn2c(N)ccnc2=O)C(=O)Cn2cnc3nc(N)[nH]c(=O)c32)C(=O)Cn2cc(C)c(=O)[nH]c2=O)C(=O)Cn2c(N)ccnc2=O)C(=O)Cn2cnc3c(N)ncnc32)C(=O)Cn2c(N)ccnc2=O)C(=O)Cn2c(N)ccnc2=O)C(=O)Cn2cnc3c(N)ncnc32)C(=O)Cn2cnc3nc(N)[nH]c(=O)c32)C(=O)Cn2cc(C)c(=O)[nH]c2=O)c(=O)[nH]c1=O | inactive | inactive |  |  |  |  |  |  |  |  | 
Cc1cn(CC(=O)N(CCNC(=O)CN(CCNC(=O)CN(CCNC(=O)CNC(=O)[C@@H](N)CCCCN)C(=O)Cn2cc(C)c(=O)[nH]c2=O)C(=O)Cn2cnc3c(=O)[nH]c(N)nc32)CC(=O)NCCN(CC(=O)NCCN(CC(=O)NCCN(CC(=O)NCCN(CC(=O)NCCN(CC(=O)NCCN(CC(=O)NCCN(CC(=O)NCCN(CC(=O)NCCN(CC(=O)NCCN(CC(=O)NCCN(CC(=O)NCCN(CC(=O)NCCN(CC(=O)NCCN(CC(=O)NCCN(CC(=O)NCCN(CC(=O)N[C@@H](CCCCN)C(=O)O)C(=O)Cn2ccc(N)nc2=O)C(=O)Cn2cnc3c(=O)[nH]c(N)nc32)C(=O)Cn2cnc3c(N)ncnc32)C(=O)Cn2ccc(N)nc2=O)C(=O)Cn2cnc3c(N)ncnc32)C(=O)Cn2ccc(N)nc2=O)C(=O)Cn2ccc(N)nc2=O)C(=O)Cn2cc(C)c(=O)[nH]c2=O)C(=O)Cn2cnc3c(=O)[nH]c(N)nc32)C(=O)Cn2cnc3c(N)ncnc32)C(=O)Cn2ccc(N)nc2=O)C(=O)Cn2ccc(N)nc2=O)C(=O)Cn2cnc3c(=O)[nH]c(N)nc32)C(=O)Cn2cnc3c(=O)[nH]c(N)nc32)C(=O)Cn2cc(C)c(=O)[nH]c2=O)C(=O)Cn2ccc(N)nc2=O)c(=O)[nH]c1=O | Active | Active | Active | Active | Active | Active | 75 | 5 | 75 | inactive | inactive
